Experimental data: patent publication US11667636B2, “Modulators of Mas-related G-protein receptor X2 and related products and methods” (Escient Pharmaceuticals, Inc., priority 2020, dated 2023)

Biological target: T1, human MRGPRX2 (Homo sapiens, UniProt Q96LB1)
T1 construct: expressed in transfected cells
T1 sequence (Q96LB1 1-330): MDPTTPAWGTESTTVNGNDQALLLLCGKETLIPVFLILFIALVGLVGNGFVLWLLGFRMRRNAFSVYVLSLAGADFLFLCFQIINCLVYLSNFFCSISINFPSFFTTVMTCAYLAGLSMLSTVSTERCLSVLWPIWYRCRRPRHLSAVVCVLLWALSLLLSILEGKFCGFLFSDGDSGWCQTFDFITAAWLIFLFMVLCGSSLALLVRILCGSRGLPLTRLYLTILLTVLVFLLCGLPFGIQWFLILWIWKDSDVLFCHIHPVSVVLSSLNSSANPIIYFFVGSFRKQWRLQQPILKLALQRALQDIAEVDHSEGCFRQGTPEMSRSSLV
Experiment: MRGPRX2 Activity: IP-One HTRF antagonist assay in CHO cells stably expressing human MRGPRX2, versus Cortistatin-14
Type: cell-based
Conditions: versus 0.3 uM Cortistatin-14 agonist, IP-1 HTRF, read-out: MRGPR2 Antagonist Activity
Method: CHO cells stably transfected to express human MRGPRX2 were maintained in an incubator at 37° C. with 5% CO2 and grown in F12 (HAM) media with 10% fetal bovine serum (FBS), 1% Glutamax, 1% penicillin/streptomycin, 800 μg/mL Geneticin (G418), and 300 μg/mL Hygromycin B. Cells were plated in a 384-well assay plate at 20,000 cells per well in 12 μL of Opti-MEM and kept in an incubator overnight. On the day of the assay, compounds solubilized at 10 mM in DMSO were added as a 10-point curve (30 uM final top concentration with 1:3 serial dilutions) using a Tecan D300E digital dispenser. Agonists were diluted in assay buffer (final concentrations of 5.7 mM Tris-HCl, 43 mM NaCl, 50 mM LiCl, pH=8) and 2 μL of the agonist Cortistatin-14 (CPC Scientific, catalog CORT-002) are added to each well. Final concentrations of agonists were 0.3 μM Cortistatin-14. Final concentrations of DMSO were kept consistent across the plate. Plates were incubated in the dark for 1 hr at 37° C. and then for 1 hr at room temperature. IP-1 standards and HTRF detection reagents were added according to the IP-One-Gq Kit purchased from Cisbio (part number 62IPAPEJ) and incubated in the dark for 1 hr at room temperature. The plate was read on a Molecular Devices SpectraMax iD5 plate reader. The HTRF ratio was calculated from the raw data and graphed using GraphPad Prism to calculate an IC50 value for each compound.
The activity ranges are denoted as follows: “+++++” denotes antagonist activity <50 nM; “++++” denotes antagonist activity between 51 and 100 nM; “+++” denotes activity between 101 and 500 nM; “++” denotes activity between 501 and 1000 nM; and “+” denotes activity >1000 nM

Compound	IC50 [nM]
O=C(N[C@H]1CC[C@@H](Nc2cccc3nc(C(F)F)cn23)CC1)c1cncs1 [2-147]	101 to 500
COc1ccc(C(=O)N[C@H]2CC[C@@H](Nc3cccc4nc(C(F)F)cn34)CC2)c(Cl)c1 [2-148]	51 to 100
O=C(N[C@H]1CC[C@@H](Nc2cccc3nc(C(F)F)cn23)CC1)c1cccc2[nH]c(C(F)F)nc12 [2-151]	101 to 500
CN(C)c1ccc(C(=O)N[C@H]2CC[C@@H](Nc3cccc4nc(C(F)(F)F)cn34)CC2)cc1 [2-158]	< 50
COc1cccc2cc(C(=O)N[C@H]3CC[C@@H](Nc4cccc5nc(C(F)(F)F)cn45)CC3)oc12 [2-166]	51 to 100
O=C(N[C@H]1CC[C@@H](Nc2cccc3nc(C(F)(F)F)cn23)CC1)c1ccnc2[nH]ccc12 [2-168]	< 50
O=C(N[C@H]1CC[C@@H](Nc2cccc3nc(C(F)(F)F)cn23)CC1)c1c[nH]nc1Cl [2-176]	< 50
O=C(N[C@H]1CC[C@@H](Nc2cccc3nc(C(F)(F)F)cn23)CC1)c1ccc(NCC(F)F)cc1 [2-180]	< 50
CCc1cc(C(=O)N[C@H]2CC[C@@H](Nc3cccc4nc(C(F)(F)F)cn34)CC2)nn1CC [2-190]	101 to 500
Cn1cc(C(=O)N[C@H]2CC[C@@H](Nc3cccc4nc(C(F)(F)F)cn34)CC2)c(C2CC2)n1 [2-191]	51 to 100
O=C(N[C@H]1CC[C@@H](Nc2cccc3nc(C(F)F)cn23)CC1)c1c[nH]nc1NCC(F)F [2-194]	< 50
CNc1ccc(C(=O)N[C@H]2CC[C@@H](Nc3cccc4nc(C(F)F)cn34)CC2)cc1 [2-195]	< 50
Cc1cc2c(C(=O)N[C@H]3CC[C@@H](Nc4cccc5nc(C(F)(F)F)cn45)CC3)cccc2n1C [2-198]	< 50
CC(C)S(=O)(=O)Nc1ccc(C(=O)N[C@H]2CC[C@@H](Nc3cccc4nc(C(F)(F)F)cn34)CC2)cc1 [2-203]	< 50
NS(=O)(=O)c1ccc(C(=O)N[C@H]2CC[C@@H](Nc3cccc4nc(C(F)(F)F)cn34)CC2)cc1 [2-204]	< 50
CC(C)Oc1ccc(C(=O)N[C@H]2CC[C@@H](Nc3cccc4nc(C(F)(F)F)cn34)CC2)cc1Cl [2-207]	101 to 500
O=C(N[C@H]1CC[C@@H](Nc2cccc3nc(C(F)(F)F)cn23)CC1)c1ccc(OCCF)cc1 [2-230]	< 50
Cn1cc(C(=O)N[C@H]2CC[C@@H](Nc3cccc4nc(C(F)(F)F)cn34)CC2)nn1 [2-233]	101 to 500
Cc1n[nH]c2c(C(=O)N[C@H]3CC[C@@H](Nc4cccc5nc(C(F)(F)F)cn45)CC3)ccnc12 [2-247]	101 to 500
O=C(N[C@H]1CC[C@@H](Nc2cccc3nc(C(F)F)cn23)CC1)c1ccnc2cn[nH]c12 [2-253]	< 50
CCCn1cc(C(=O)N[C@H]2CC[C@@H](Nc3cccc4nc(C(F)F)cn34)CC2)cn1 [2-255]	101 to 500
CC(C)(F)Cn1cc(C(=O)N[C@H]2CC[C@@H](Nc3cccc4nc(C(F)F)cn34)CC2)c(Cl)n1 [2-257]	< 50
CN(C)c1ccc(C(=O)N[C@H]2CC[C@@H](Nc3cccc4nc(C#N)cn34)CC2)cc1 [2-258]	< 50
CNc1ccccc1C(=O)N[C@H]1CC[C@@H](Nc2cccc3nc(C#N)cn23)CC1 [2-262]	101 to 500
O=C(N[C@H]1CC[C@@H](Nc2cccc3nc(C(F)F)cn23)CC1)c1nn2ccccc2c1NCC(F)F [2-269]	101 to 500
Cn1ncc(C(=O)N[C@H]2CC[C@@H](Nc3cccc4nc(C(F)F)cn34)CC2)c1NCC(F)F [2-270]	51 to 100
CN(CC(F)F)c1ccc(C(=O)N[C@H]2CC[C@@H](Nc3cccc4nc(C(F)F)cn34)CC2)cc1 [2-274]	< 50
O=C(N[C@H]1CC[C@@H](Nc2cccc3nc(C(F)F)cn23)CC1)c1ccc(Cl)cc1Cl [2-275]	101 to 500
Cn1cc(C(=O)N[C@H]2CC[C@@H](Nc3cccc4nc(C(F)F)cn34)CC2)c(C(F)F)n1 [2-286]	101 to 500

Further lines, results first:

IC50 [nM]	Compound
101 to 500	O=C(N[C@H]1CC[C@@H](Nc2cccc3nc(C(F)F)cn23)CC1)c1ccc(F)cc1Cl [2-149]
< 50	O=C(N[C@H]1CC[C@@H](Nc2cccc3nc(C(F)F)cn23)CC1)c1ccnc(NCC(F)F)c1 [2-150]
< 50	O=C(N[C@H]1CC[C@@H](Nc2cccc3nc(C(F)(F)F)cn23)CC1)c1ccc(F)cc1 [2-157]
51 to 100	CN(C)c1ccc(C(=O)N[C@H]2CC[C@@H](Nc3cccc4nc(C(F)(F)F)cn34)CC2)c(F)c1 [2-159]
101 to 500	O=C(N[C@H]1CC[C@@H](Nc2cccc3nc(C(F)(F)F)cn23)CC1)c1ccncc1 [2-162]
< 50	O=C(N[C@H]1CC[C@@H](Nc2cccc3nc(C(F)(F)F)cn23)CC1)c1ccn2cncc2c1 [2-163]
< 50	O=C(N[C@H]1CC[C@@H](Nc2cccc3nc(C(F)(F)F)cn23)CC1)c1ccc2nccn2c1 [2-165]
< 50	Cc1nc2cccc(C(=O)N[C@H]3CC[C@@H](Nc4cccc5nc(C(F)(F)F)cn45)CC3)c2s1 [2-169]
< 50	O=C(N[C@H]1CC[C@@H](Nc2cccc3nc(C(F)(F)F)cn23)CC1)c1c[nH]nc1C(F)(F)F [2-177]
< 50	O=C(N[C@H]1CC[C@@H](Nc2cccc3nc(C(F)(F)F)cn23)CC1)c1ccc(C(F)F)cc1 [2-179]
< 50	CN(CC(F)F)c1ccc(C(=O)N[C@H]2CC[C@@H](Nc3cccc4nc(C(F)(F)F)cn34)CC2)cc1 [2-181]
< 50	Cc1n[nH]c2c(C(=O)N[C@H]3CC[C@@H](Nc4cccc5nc(C(F)(F)F)cn45)CC3)cccc12 [2-183]
< 50	O=C(N[C@H]1CC[C@@H](Nc2cccc3nc(C(F)(F)F)cn23)CC1)c1ccccc1NCC(F)F [2-188]
< 50	O=C(N[C@H]1CC[C@@H](Nc2cccc3nc(C(F)F)cn23)CC1)c1cccc2cn[nH]c12 [2-193]
< 50	O=C(N[C@H]1CC[C@@H](Nc2cccc3nc(C(F)(F)F)cn23)CC1)c1c[nH]c2ccccc12 [2-201]
< 50	O=C(N[C@H]1CC[C@@H](Nc2cccc3nc(C(F)(F)F)cn23)CC1)c1ccc(-n2cnnn2)cc1 [2-202]
51 to 100	O=C(N[C@H]1CC[C@@H](Nc2cccc3nc(C(F)(F)F)cn23)CC1)c1ccn2ccnc2c1 [2-208]
< 50	O=C(N[C@H]1CC[C@@H](Nc2cccc3nc(C(F)F)cn23)CC1)c1ccc(OCCF)cc1 [2-218]

IC50 [nM]	Compound
< 50	O=C(N[C@H]1CC[C@@H](Nc2cccc3nc(C(F)F)cn23)CC1)c1cn(C(F)F)nc1C(F)F [2-220]
< 50	Cc1cc(C(=O)N[C@H]2CC[C@@H](Nc3cccc4nc(C(F)F)cn34)CC2)cn1C(F)F [2-221]
101 to 500	Cc1c(C(=O)N[C@H]2CC[C@@H](Nc3cccc4nc(C(F)(F)F)cn34)CC2)c2ccccc2n1C [2-227]
< 50	N#Cc1nn(C(F)F)cc1C(=O)N[C@H]1CC[C@@H](Nc2cccc3nc(C(F)(F)F)cn23)CC1 [2-229]
< 50	O=C(N[C@H]1CC[C@@H](Nc2cccc3nc(C(F)(F)F)cn23)CC1)c1cccc2[nH]ccc12 [2-232]
101 to 500	O=C(N[C@H]1CC[C@@H](Nc2cccc3nc(C(F)(F)F)cn23)CC1)c1cncc2cn[nH]c12 [2-241]
101 to 500	Cn1ncc(C(=O)N[C@H]2CC[C@@H](Nc3cccc4nc(C(F)(F)F)cn34)CC2)c1C1CC1 [2-245]
< 50	Cn1cc(C(=O)N[C@H]2CC[C@@H](Nc3cccc4nc(C(F)(F)F)cn34)CC2)c(N)n1 [2-246]
101 to 500	O=C(N[C@H]1CC[C@@H](Nc2cccc3nc(C(F)F)cn23)CC1)c1ccc(F)nc1 [2-254]
101 to 500	CNc1ccc(C(=O)N[C@H]2CC[C@@H](Nc3cccc4nc(C#N)cn34)CC2)cc1 [2-259]
101 to 500	COc1cccc(C(=O)N[C@H]2CC[C@@H](Nc3cccc4nc(C#N)cn34)CC2)c1 [2-260]
51 to 100	CNc1ccccc1C(=O)N[C@H]1CC[C@@H](Nc2cccc3nc(C(F)F)cn23)CC1 [2-276]
101 to 500	CC(C)(O)Cn1cc(C(=O)N[C@H]2CC[C@@H](Nc3cccc4nc(C(F)F)cn34)CC2)c(Cl)n1 [2-283]
101 to 500	O=C(N[C@H]1CC[C@@H](Nc2cccc3nc(C(F)(F)F)cn23)CC1)c1cnn(CC(F)F)c1C(F)F [2-284]
51 to 100	O=C(N[C@H]1CC[C@@H](Nc2cccc3nc(C(F)F)cn23)CC1)c1ccc(C(F)F)cc1 [2-285]
< 50	Cn1cc(C(=O)N[C@H]2CC[C@@H](Nc3cccc4nc(C(F)F)cn34)CC2)c(NCC(F)F)n1 [2-288]
< 50	Cn1cc(C(=O)NC2CCC(Nc3cccc4nc(C(F)(F)F)cn34)CC2)c2ccccc21 (stereo not shown) [2-289]
